Experimental data as given in ChEMBL document CHEMBL3526001, “Attenuation of intestinal absorption by major efflux transporters: quantitative tools and strategies using a Caco-2 model” (Drug Metab Dispos, 2011).

Experiments:
clinical = conditions: human, in vivo
Description: Fraction absorbed in human

in vitro [1] = conditions: human, Caco-2
in vitro [2] = conditions: human, Caco-2; remark: listed apart in the source
in vitro [3] = conditions: human, Caco-2; remark: listed apart in the source
P-gp = assay: in vitro; conditions: human
[4] = human, caco-2, 2 h, 10 µM
[5] = human, caco-2, 2 h, 10 µM; remark: listed apart in the source

Compound | Fa (clinical) [%] | Papp A→B at 2 h, 10 µM (in vitro [1]) [×10⁻⁶ cm/s] | Papp B→A at 2 h, 10 µM (in vitro [2]) [×10⁻⁶ cm/s] | efflux ratio at 2 h, 10 µM (in vitro [3]) | efflux ratio at 2 h, 10 µM (P-gp; Caco-2, with LY335979 1 uM) | Papp [4] [×10⁻⁶ cm/s] | Papp [5] [×10⁻⁶ cm/s] | efflux ratio at 2 h, 10 µM (P-gp; Caco-2)
Cc1c(O)cccc1C(=O)N[C@@H](CSc1ccccc1)[C@H](O)CN1C[C@H]2CCCC[C@H]2C[C@H]1C(=O)NC(C)(C)C | 3 | 0.7 | 1.7 | 2.5 | 0.7 | – | – | –
Cc1ccc(NC(=O)c2ccc(CN3CCN(C)CC3)cc2)cc1Nc1nccc(-c2cccnc2)n1 [IMATINIB] | 67 | – | – | – | – | – | – | –
CC(C)(C)NC(=O)[C@@H]1C[C@@H]2CCCC[C@@H]2CN1C[C@@H](O)[C@H](Cc1ccccc1)NC(=O)[C@H](CC(N)=O)NC(=O)c1ccc2ccccc2n1 | 4 | – | – | – | – | 0.4 | 5.6 | –
CC(=O)O[C@H]1C(=O)[C@@]2(C)[C@H]([C@H](OC(=O)c3ccccc3)[C@]3(O)C[C@H](OC(=O)[C@H](O)[C@@H](NC(=O)c4ccccc4)c4ccccc4)C(C)=C1C3(C)C)[C@]1(OC(C)=O)CO[C@@H]1C[C@@H]2O [PACLITAXEL] | 6 | – | – | – | – | – | – | –
CNCCC(Oc1ccc(C(F)(F)F)cc1)c1ccccc1 (centres undefined) [FLUOXETINE] | 70 | – | – | – | – | – | – | –
COc1cc2nc(N3CCN(C(=O)c4ccco4)CC3)nc(N)c2cc1OC [PRAZOSIN] | 100 | 6.2 | 11.1 | 1.8 | – | – | – | –
CNS(=O)(=O)Cc1ccc2[nH]cc(CCN(C)C)c2c1 | – | 1.5 | 2.2 | 1.4 | 0.5 | – | – | –
O=C(O)COCCN1CCN(C(c2ccccc2)c2ccc(Cl)cc2)CC1 (centres undefined) [CETIRIZINE] | 66 | – | – | – | – | – | – | –
CN1CCN(CCCN2c3ccccc3Sc3ccc(C(F)(F)F)cc32)CC1 [TRIFLUOPERAZINE] | 16 | 0.5 | 1 | 1.9 | – | – | – | 0.9
COCc1c(C(C)C)nc(C(C)C)c(/C=C/[C@@H](O)C[C@@H](O)CC(=O)O)c1-c1ccc(F)cc1 [CERIVASTATIN] | 98 | – | – | – | – | – | – | –
CC1=C(CC(=O)O)c2cc(F)ccc2/C1=C\c1ccc([S+](C)[O-])cc1 (centres undefined) | 90 | – | – | 3.6 | 2.6 | 2 | 13.5 | –
COC(=O)[C@H]1[C@H]2C[C@@H]3c4[nH]c5cc(OC)ccc5c4CCN3C[C@H]2C[C@@H](OC(=O)c2cc(OC)c(OC)c(OC)c2)[C@@H]1OC [RESERPINE] | 50 | 3.6 | 2.3 | 0.6 | – | – | – | 0.7
CC(C)(C)NC(=O)[C@@H]1CN(Cc2cccnc2)CCN1C[C@@H](O)C[C@@H](Cc1ccccc1)C(=O)N[C@H]1c2ccccc2C[C@H]1O.O | 63 | 2.4 | 22.8 | 9.7 | – | – | – | 0.8
OC(Cn1cncn1)(Cn1cncn1)c1ccc(F)cc1F [FLUCONAZOLE] | – | 11.6 | 6.7 | 0.6 | – | – | – | 0.1
CCC1=C[C@@H]2CN(C1)Cc1c([nH]c3ccccc13)[C@@](C(=O)OC)(c1cc3c(cc1OC)N(C)[C@H]1[C@@](O)(C(=O)OC)[C@H](OC(C)=O)[C@]4(CC)C=CCN5CC[C@]31[C@@H]54)C2 [VINORELBINE] | 45 | 1.4 | 8.5 | 5.9 | 1 | – | – | –
Cc1cn([C@H]2C[C@H](N=[N+]=[N-])[C@@H](CO)O2)c(=O)[nH]c1=O [ZIDOVUDINE] | 90 | 6.7 | 9.6 | 1.4 | – | – | – | –
CC[C@]1(O)C[C@H]2CN(CCc3c([nH]c4ccccc34)[C@@](C(=O)OC)(c3cc4c(cc3OC)N(C=O)[C@H]3[C@@](O)(C(=O)OC)[C@H](OC(C)=O)[C@]5(CC)C=CCN6CC[C@]43[C@@H]65)C2)C1 [VINCRISTINE] | < 10 | – | – | – | 8.6 | 0.4 | 3.5 | –
CC(=O)N1CCN(c2ccc(OCC3COC(Cn4ccnc4)(c4ccc(Cl)cc4Cl)O3)cc2)CC1 (centres undefined) [KETOCONAZOLE] | 90 | 18 | 5.1 | – | – | – | – | –
CC(C)c1nc(CN(C)C(=O)N[C@H](C(=O)N[C@@H](Cc2ccccc2)C[C@H](O)[C@H](Cc2ccccc2)NC(=O)OCc2cncs2)C(C)C)cs1 [RITONAVIR] | 66 | 2.1 | 9.2 | – | – | – | – | –
COC(=O)C1=C(C)NC(C)=C(C(=O)OCCN(C)Cc2ccccc2)C1c1cccc([N+](=O)[O-])c1 (centres undefined) [NICARDIPINE] | 100 | 5 | 2.6 | 0.5 | – | – | – | 0.5
CCn1cc(C(=O)O)c(=O)c2cc(F)c(N3CCNCC3)cc21 [NORFLOXACIN] | 40 | 1.9 | 3.3 | 1.7 | – | – | – | 1.7
